Measurements: publication PMC7318243, “Computationally Empowered Workflow Identifies Novel Covalent Allosteric Binders for KRAS^G12C” (Chemmedchem, 2020)

Legend:
KRAS^G12C = target: T1, KRAS^G12C (Homo sapiens, UniProt P01116, G12C); test: Biochemical assay: KRAS^G12C activation by SOS1CAT (HTRF, fluorescent GTP loading); conditions: for IC50: 180 min pre-incubation with KRAS before addition of SOS1
T1 construct: KRASG12C (aa 1–169, G12C) were produced for the biochemical assay; made in house
Method: (§1) One of the most synthetically accessible compounds, 1,6‐naphthyridin‐5(6H)‐one (1), was prepared (Table 1; Scheme S1). Structurally close to 1, isoquinolin‐1(2H)‐one 2 derivatives were also considered for the exploration of structure‐activity relationships (SAR). To measure the proportion of inhibitor reacting with Cys12 of the KRAS^G12C mutant, the bound/unbound protein ratio was quantified by mass spectrometry (MS). Then, the inhibition potency of these compounds towards KRAS^G12C was evaluated in biochemical assays measuring the activation of GDP‐bound KRAS^G12C or KRAS^WT by SOS1.19 […]
(§2) 3.3 Biochemical activity assays
(§3) Measurement of (i) KRASG12C activation by SOS1CAT and (ii) wild-type KRAS activation by SOS1CAT was performed following the previously described protocol, [19] with a pre-incubation time of the test compound with KRAS proteins extended to 180 min before addi tion of SOS1.
(§4) This assay quantifies SOS1 CAT mediated loading of KRAS G12C–GDP with a fluorescent GTP analogue. Detection of successful loading was achieved by measuring resonance energy transfer from anti-GST-terbium (FRET donor) bound to GST -KRASG12C to the loaded fluorescent GTP analogue (FRET acceptor). The fluorescent GTP analogue EDA –GTP–DY-647P1 [2'/3'-O-(2-aminoethyl-carbamoyl)guanosine-5'-triphosphate labelled with DY-647P1 (Dyomics GmbH, Germany)] was synthesized by Jena Bioscience (Germany) a nd supplied as a 1 mM aqueous solution. A KRASG12C working solution was prepared in assay buffer [10 mM HEPES pH 7.4 (AppliChem), 150 mM NaCl (Sigma), 5 mM MgCl2 (Sigma), 1 mM DTT (Thermo Fisher), 0.05% BSA Fraction V pH 7.0 (ICN Biomedicals), 0.0025% (v/v) Igepal (Sigma)] containing 100 nM GST-KRASG12C and 2 nM anti-GST-terbium (Cisbio, France). A SOS1 CAT working solution was prepared in an assay buffer containing 20 nM SOS1CAT and 200 nM EDA–GTP–DY-647P1. An inhibitor control solution was prepared in an assay buffer containing 200 nM EDA–GTP–DY-647P1 without […]
SOS1CAT. All steps of the assay were performed at 20 °C. A volume of 2.5 µL of the KRASG12C working solution was added to all wells of the test plate using a Multidrop dispenser (Thermo LabSystems). After 180 min, 2.5 µL of the SOS1CAT working solution was added to all wells, except for the inhibitor control solution wells. After 30 min incubation, HTRF was measured. […]
(§5) SYNAPT G2-S quadrupole time-of-flight mass spectrometer connected to a Waters nanoAcquity UPLC system. Samples were loaded on a 2.1 x 5 mm mass prep C4 guard column (Waters) and desalted with a short grad ient (3 min) of increasing concentrations of acetonitrile at a flow rate of 100 µL/min. Spectra were analyzed by using MassLynx v4.1 software and deconvoluted with the MaxEnt1 algorithm. Percent of conversion was determined by the ratio of signal intensiti es of apo-KRAS and KRAS + inhibitor.

KRAS^WT = target: T2, KRAS^WT (Homo sapiens, UniProt P01116); test: Biochemical assay: KRAS^WT activation by SOS1CAT (HTRF, fluorescent GTP loading); conditions: 180 min pre-incubation with KRAS before addition of SOS1
T2 construct: The proteins KRASWT (aa 1–169, wild type), SOS1CAT (aa 564–); made in house
Method: as §1, §2, §3, §4
SOS1CAT. All steps of the assay were performed at 20 °C. A volume of 2.5 µL of the KRASG12C working solution was added to all wells of the test plate using a Multidrop dispenser (Thermo LabSystems). After 180 min, 2.5 µL of the SOS1CAT working solution was added to all wells, except for the inhibitor control solution wells. After 30 min incubation, HTRF was measured.
In the KRASWT activation by SOS1cat assay, human SOS1CAT mediated loading of GST-KRASWT– GDP was quantified with a fluorescent GTP analogue. The assay was performed as described above for the KRASG12C activation. […]
as §5

[1] = target: T3, KRAS^G12C (recombinant KRAS mutant G12C, C51S, C80L, C118S) (Homo sapiens, UniProt P01116, C118S/C51S/C80L/G12C); test: Covalent binding assay by mass spectrometry (intact mass, % covalent adduct); conditions: for MS assay [% binding] (KRAS^G12C bound fraction): 25 µM protein, 25 µM compound, room temperature, 2 h
T3 construct: made in house
Method: as §1
3.4 Covalent binding assay by mass spectrometry
The percentage of covalent adduct formation at KRAS G12C was determined by intact mass determination. To this end, 25 µM recombinant KRAS mutant (G12C , C51S, C80L, C118S) was incubated with 25 µM compound (1% v/v DMSO final concentration) in 50 mM Tris, pH 8.0, 50 mM NaCl at room temperature for 2 h. Reaction mixture (20 µL) was acidified by addi tion of 4% v/v TFA (4 µL). LC-MS analysis was performed using a Waters SYNAPT G2 -S quadrupole time -of-flight mass spectrometer connected to a Waters nanoA CQUITY UPLC system. Samples were loaded onto a 2.1 × 5 mm MassPrep C4 guard column (Waters) and desalted with a short gradient (3 min) of increasing concentration of acetonitrile at a flow rate of 100 µL/min. Spectra were analyzed by using MassLynx v4.1 software and deconvoluted with the MaxEnt1 algorithm. Percent conversion was determined by the ratio of signal intensities of […] and KRASG12C + inhibitor. […]

| IC50 (KRAS^G12C) | IC50 (KRAS^WT) | MS assay [% binding] (KRAS^G12C bound fraction) [1] | KRAS^G12C activity, in words (KRAS^G12C) | Ability to bind / react with Cys12 of KRAS^G12C, in words [1] | Compound |
| --- | --- | --- | --- | --- | --- |
| 5 µM | > 20 µM | 34% |  |  | C=CC(=O)N1CCC(c2cc3ccc(-c4ccc(F)cc4F)cc3c(=O)[nH]2)C1 (stereo not drawn) [Compound 3, 7-(2,4-Difluorophenyl)-3-[1-(prop-2-enoyl)pyrrolidin-3-yl]isoquinolin-1(2H)-one] |
| > 20 µM | > 20 µM | 0% |  |  | C=CC(=O)N1CCC(c2cc3ccc(-c4cc(F)cc(F)c4)cc3c(=O)[nH]2)C1 (stereo not drawn) [Compound 4, 7-(3,5-Difluorophenyl)-3-[1-(prop-2-enoyl)pyrrolidin-3-yl]isoquinolin-1(2H)-one] |
| 8 µM | > 20 µM | 60% |  |  | C=CC(=O)N1CCC(c2cc3ccc(-c4ccccc4CC)cc3c(=O)[nH]2)C1 (stereo not drawn) [Compound 5, 7-(2-Ethylphenyl)-3-[1-(prop-2-enoyl)pyrrolidin-3-yl]isoquinolin-1(2H)-one] |
| > 16 µM | > 20 µM | 20% |  |  | C=CC(=O)N1CCC(c2cc3ccc(-c4cccc5ncccc45)cc3c(=O)[nH]2)C1 (stereo not drawn) [Compound 6, 3-[1-(Prop-2-enoyl)pyrrolidin-3-yl]-7-(quinolin-5-yl)isoquinolin-1(2H)-one] |
| 14.6 µM | > 20 µM | 51% |  |  | C=CC(=O)N1CCC(c2cc3cc(Cl)c(-c4c(O)cccc4F)cc3c(=O)[nH]2)C1 (stereo not drawn) [Compound 7, 6-Chloro-7-(2-fluoro-6-hydroxyphenyl)-3-[1-(prop-2-enoyl)pyrrolidin-3-yl]isoquinolin-1(2H)-one] |
| > 20 µM | > 20 µM | 0% | inactive |  | C=CC(=O)N1CCC(c2cc3ccc(-c4c(O)cccc4F)cc3c(=O)[nH]2)CC1 [Compound 8] |
| > 20 µM | > 20 µM | 0% | inactive |  | C=CC(=O)N1CCCC(c2cc3ccc(-c4c(O)cccc4F)cc3c(=O)[nH]2)C1 (stereo not drawn) [Compound 9] |
| > 20 µM | > 20 µM | 11% | inactive | inability to bind KRAS^G12C | C=CC(=O)N1CCC(c2cc3ccc(-c4c(O)cccc4F)cc3c(=O)n2C)C1 (stereo not drawn) [Compound 10] |
| 4.9 µM | > 20 µM | 59% |  |  | C=CC(=O)N1CCC(c2nc3ccc(-c4c(O)cccc4F)cc3c(=O)[nH]2)C1 (stereo not drawn) [Compound 11, 6-(2-Fluoro-6-hydroxyphenyl)-2-[1-(prop-2-enoyl)pyrrolidin-3-yl]quinazolin-4(3H)-one] |
|  |  | 0% |  | unable to react with Cys12 of KRAS^G12C | C=CC(=O)N1CCC(c2cc3cc(O)c(-c4ncccc4F)cc3c(=O)[nH]2)C1 (stereo not drawn) [Compound 12] |
